This is an account of results in patent US9522920B2, “Bromodomain inhibitors and uses thereof” (Constellation Pharmaceuticals, Inc., priority 2010, dated 2016).

Where two headings read alike, the source gives them in different places.

The subject of experiment [1] is IL-6 secretion. The experiment is described as follows: Cell-based IL-6 quantification assay (ELISA, Mesoscale) in LPS-stimulated THP-1 cells. The following applies: Homo sapiens, THP-1, 16 h, THP-1 cells, 16 h, read-out: IL6. How it is done:
100,000 THP-1 cells were seeded in RPMI1640-10% FBS in 96-well plates. LPS (E. Coli Invitrogen) in RPMI-10% FBS at a final concentration of 4 μg/mL was added to the wells and the cells are then incubated in the presence of various concentrations of compounds for 16 h. Plates are spun ([…], 5 min), an aliquot of 25 uL supernatant is transferred in to an ELISA plate (Mesoscale technology, MSD) and the detection of IL-6 is performed using manufacturer's instructions. The amount of cells in each well is assessed using CellTiter-Glo® (Promega). The ratio of ELISA value/CellTiter-Glo value is used to calculate the percent of inhibition of IL-6 secretion.

Experiment [2] concerns the target T1, BRD4(BD1) (Homo sapiens, UniProt O60885).
T1 construct: His; made in house
The experiment in a line: BRD4 AlphaLisa binding assay (Alphascreen). How it is done:
Specifically, in a 384 well ProxiPlate BRD4(BD1) (30 nM final) was combined with peptide (200 nM final) in 40 mM HEPES (pH 7.0), 40 mM NaCl, 1 mM DTT, 0.01% (w/v) BSA, and 0.008% (w/v) Brij-35 either in the presence of DMSO (final 1.2% DMSO) or compound dilution series in DMSO. After 20 minute incubation at room temperature Alpha streptavidin donor beads and AlphaLisa anti-Flag acceptor beads were added to a final concentration of 10 ug/mL each. After three hours equilibration plates were read on an Envision instrument and IC50s calculated using a four parameter non-linear curve fit.

[3] abbreviates: Table 7, LPS 4 μg/mL, normalised to CellTiter-Glo.
Where [4] appears, read: Table 6, BRD4(BD1) 30 nM, H4-tetraacetyl peptide 200 nM, read-out: BRD4 Alphascreen IC50.
The mark [5] stands for this setting: Table 14, BRD4 AlphaLisa Binding Assay, read-out: Alpha screen.

Consider `Cc1noc2c1-c1sc(C)c(C)c1C(c1cc[nH]n1)=NC2CC(N)=O` (centres unmarked) [Compound 100], for which the IC50 in experiment [1] (setting [3]) is 500 to 1000 nM; in experiment [2] (setting [4]) it was less than 500 nM.
The corresponding values for `Cc1noc2c1-c1sc(C)c(C)c1C(c1ccn(C)n1)=NC2CC(N)=O` (centres unmarked) [Compound 101] are 500 to 1000 nM and less than 500 nM.
Consider `Cc1noc2c1-c1sc(C)c(C)c1C(c1ccnnc1)=NC2CC(N)=O` (centres unmarked) [Compound 104], for which the IC50 in experiment [1] (setting [3]) and in experiment [2] (setting [4]) was 500 to 1000 nM throughout.
For the compound `Cc1noc2c1-c1sc(C)c(C)c1C(c1cncnc1)=NC2CC(N)=O` (centres unmarked) [Compound 105], the IC50 in experiment [1] (setting [3]) and in experiment [2] (setting [4]) was more than 1000 nM in each case.
Take `Cc1noc2c1-c1sc(C)c(C)c1C(c1cccnc1)=NC2CC(N)=O` (centres unmarked) [Compound 106]: the IC50 in experiment [1] (setting [3]) and in experiment [2] (setting [4]) was less than 500 nM each time.
For the compound `Cc1noc2c1-c1sc(C)c(C)c1C(c1ccncc1)=NC2CC(N)=O` (centres unmarked) [Compound 107], the IC50 in experiment [1] (setting [3]) and in experiment [2] (setting [4]) was less than 500 nM each time.
For the compound `Cc1noc2c1-c1sc(C)c(C)c1C(c1ccccc1Cl)=NC2CC(N)=O` (centres unmarked) [Compound 111], the IC50 in experiment [1] (setting [3]) and in experiment [2] (setting [4]) was less than 500 nM throughout.
For the compound `Cc1noc2c1-c1sc(C)c(C)c1C(c1cccc(C(N)=O)c1)=NC2CC(N)=O` (centres unmarked) [Compound 117], the IC50 in experiment [1] (setting [3]) and in experiment [2] (setting [4]) was less than 500 nM throughout.
In the case of `Cc1noc2c1-c1sc(C)c(C)c1C(c1ccn(C)c(=O)c1)=NC2CC(N)=O` (centres unmarked) [Compound 119], the IC50 in experiment [1] (setting [3]) was 500 to 1000 nM; in experiment [2] (setting [4]), less than 500 nM.
Consider `Cc1noc2c1-c1sc(C)c(C)c1C(N1CCN(C)CC1)=NC2CC(N)=O` (centres unmarked) [Compound 121], for which the IC50 in experiment [1] (setting [3]) and in experiment [2] (setting [4]) was more than 1000 nM in each case.
As to `Cc1noc2c1-c1sc(C)c(C)c1C(N1CCOCC1)=NC2CC(N)=O` (centres unmarked) [Compound 122], the IC50 in experiment [1] (setting [3]) and in experiment [2] (setting [4]) was more than 1000 nM in each case.
Take `Cc1noc2c1-c1sc(C)c(C)c1C(N1CCCN(C)CC1)=NC2CC(N)=O` (centres unmarked) [Compound 123]: the IC50 in experiment [1] (setting [3]) and in experiment [2] (setting [4]) was more than 1000 nM throughout.
Regarding `Cc1noc2c1-c1sc(C)c(C)c1C(C1CC1)=NC2CC(N)=O` (centres unmarked) [Compound 125], the IC50 in experiment [1] (setting [3]) and in experiment [2] (setting [4]) was more than 1000 nM in each case.
Regarding `Cc1noc2c1-c1sc(C)c(C)c1C(Cc1ccccc1)=N[C@H]2CC(N)=O` [Compound 127, 2-((6S)-4-benzyl-2,3,9-trimethyl-6H-isoxazolo[5,4-c]thieno[2,3-e]azepin-6-yl)acetamide], the IC50 in experiment [1] (setting [3]) and in experiment [2] (setting [4]) was more than 1000 nM throughout.
In the case of `CCNC(=O)C[C@H]1N=C(c2ccc(Cl)cc2)c2c(sc(C)c2C)-c2c(C)noc21` [Compound 167, 2-((6R)-4-(4-chlorophenyl)-2,3,9-trimethyl-6H-isoxazolo[4,5-e]thieno[3,2-c]azepin-6-yl)-N-ethylacetamide], the IC50 in experiment [2] (BRD4 Alphascreen IC50, Table 6, BRD4(BD1) 30 nM, H4-tetraacetyl peptide 200 nM) is more than 1000 nM.
As to `CCNC(=O)C[C@H]1N=C(c2ccc(Cl)cc2)c2ccccc2-c2c1noc2C` [Compound 189, 2-((4R)-6-(4-chlorophenyl)-1-methyl-4H-benzo[c]isoxazolo[4,3-e]azepin-4-yl)-N-ethylacetamide], in experiment [2] (setting [4]), the IC50 is more than 1000 nM.
Still for that read-out and setting: with `Cc1onc2c1-c1ccccc1C(c1ccc(Cl)cc1)=NC2` [Compound 191, 6-(4-chlorophenyl)-1-methyl-4H-benzo[c]isoxazolo[4,3-e]azepine] the figure was more than 1000 nM.
Take `CNc1cc2c(cn1)-c1c(C)noc1CN=C2c1ccc(Cl)cc1` [Compound 258, 6-(4-Chlorophenyl)-N,1-dimethyl-4H-isoxazolo[5,4-c]pyrido[3,4-e]azepin-8-amine]: the IC50 in experiment [2] (setting [5]) is less than 500 nM.
For the compound `Cc1noc2c1-c1cn(C)nc1C(c1ccc(Cl)cc1)=NC2` [Compound 265, 6-(4-chlorophenyl)-1,8-dimethyl-4,8-dihydroisoxazolo[5,4-c]pyrazolo[4,3-e]azepine], the IC50 in experiment [1] (Table 14, LPS) is more than 1000 nM.
Consider `CCNC(=O)NC1N=C(c2ccc(OC(F)(F)F)cc2)c2ccccc2-c2c(C)noc21` (centres unmarked) [compound 259], for which, in experiment [2] (setting [5]), the IC50 was less than 500 nM.
Same read-out and setting: for `CCNC(=O)NC1N=C(c2ccc(F)cc2)c2ccccc2-c2c(C)noc21` (centres unmarked) [compound 260] the value was less than 500 nM.
